Results: PubChem BioAssay AID330 (DTP/NCI, 2004)
“And” between values parts separate entries of the source, which are not always exact repeats. Identical values can stand only once. Toxic doses and inconclusive results are not listed. How the source made its calls: active means survival T/C of 150% or more; inactive means T/C below 125% in these data.

Tested on: P388 leukemia ip, CD2F1 mice, survival T/C
Experiment: NCI In Vivo Anticancer Drug Screen. Data for tumor model P388 Leukemia (intraperitoneal) in CD2F1 (CDF1) mice
Conditions: endpoint: median survival time, higher = longer survival
Summary of the method: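 Mice carrying the transplanted tumor received test compound or vehicle. Survival was recorded in each group, and the value is the treated-group measurement divided by that of the vehicle-treated control group.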

[1] = dose: 12.5 mg/kg/injection, schedule: Q01DX009 (ip), vehicle: saline
[2] = dose: 25.0 mg/kg/injection, schedule: Q01DX009 (ip), vehicle: saline
[3] = dose: 50.0 mg/kg/injection, schedule: Q01DX009 (ip), vehicle: saline
[4] = dose: 100.0 mg/kg/injection, schedule: Q04DX002 (ip), vehicle: saline with Tween-80
[5] = dose: 200.0 mg/kg/injection, schedule: Q04DX002 (ip), vehicle: saline with Tween-80
[6] = dose: 400.0 mg/kg/injection, schedule: Q04DX002 (ip), vehicle: saline with Tween-80
[7] = dose: 50.0 mg/kg/injection, schedule: Q01DX005 (ip), vehicle: saline
[8] = dose: 50.0 mg/kg/injection, schedule: Q01DX005 (ip), vehicle: saline with Tween-80
[9] = dose: 25.0 mg/kg/injection, schedule: Q01DX009 (ip), vehicle: saline with Tween-80
[10] = dose: 50.0 mg/kg/injection, schedule: Q01DX009 (ip), vehicle: saline with Tween-80

Measured: T/C

Nc1nc2c(ncn2C2OC(CO)C(O)C2O)c(=O)[nH]1 (stereo not given)
inactive: dose: 25.0 mg/kg/injection, schedule: Q04DX003 (ip), vehicle: saline with Tween-80 103 % of control and 106 % of control | dose: 50.0 mg/kg/injection, schedule: Q04DX003 (ip), vehicle: saline with Tween-80 120 % of control | dose: 100.0 mg/kg/injection, schedule: Q01DX009 (ip), vehicle: suspension in saline 110 % of control | dose: 100.0 mg/kg/injection, schedule: Q04DX003 (ip), vehicle: saline with Tween-80 90 % of control | dose: 200.0 mg/kg/injection, schedule: Q01DX009 (ip), vehicle: saline with Tween-80 111 % of control | dose: 200.0 mg/kg/injection, schedule: Q01DX009 (ip), vehicle: suspension in saline 92 % of control | dose: 300.0 mg/kg/injection, schedule: Q01DX009 (ip), vehicle: saline with Tween-80 106 % of control | dose: 400.0 mg/kg/injection, schedule: Q01DX009 (ip), vehicle: saline with Tween-80 102 % of control | dose: 400.0 mg/kg/injection, schedule: Q01DX009 (ip), vehicle: suspension in saline 119 % of control and 97 % of control | dose: 400.0 mg/kg/injection, schedule: Q04DX003 (ip), vehicle: saline with Tween-80 100 % of control | dose: 600.0 mg/kg/injection, schedule: Q01DX009 (ip), vehicle: saline with Tween-80 90 % of control | dose: 800.0 mg/kg/injection, schedule: Q01DX009 (ip), vehicle: saline with Tween-80 114 % of control | dose: 800.0 mg/kg/injection, schedule: Q01DX009 (ip), vehicle: suspension in saline 113 % of control and 94 % of control | dose: 1200.0 mg/kg/injection, schedule: Q01DX009 (ip), vehicle: saline with Tween-80 95 % of control | dose: 1600.0 mg/kg/injection, schedule: Q01DX009 (ip), vehicle: saline with Tween-80 99 % of control | dose: 1600.0 mg/kg/injection, schedule: Q01DX009 (ip), vehicle: suspension in saline 112 % of control and 95 % of control | dose: 2400.0 mg/kg/injection, schedule: Q01DX009 (ip), vehicle: saline with Tween-80 100 % of control | dose: 2400.0 mg/kg/injection, schedule: Q01DX009 (ip), vehicle: suspension in saline 117 % of control

O=NNc1ccc(C(=O)O)cn1
inactive: dose: 3.12 mg/kg/injection, schedule: Q01DX009 (ip), vehicle: saline 108 % of control | dose: 6.25 mg/kg/injection, schedule: Q01DX009 (ip), vehicle: saline 100 % of control | [1] 106 % of control | [2] 97 % of control | [3] 100 % of control | dose: 100.0 mg/kg/injection, schedule: Q01DX009 (ip), vehicle: saline 91 % of control | dose: 200.0 mg/kg/injection, schedule: Q01DX009 (ip), vehicle: saline 110 % of control

Nc1ncnc2c1ccn2C1OC(CSCCC(N)C(=O)O)C(O)C1O (stereo not given)
inactive: dose: 0.5 mg/kg/injection, schedule: Q01DX009 (ip), vehicle: water 98 % of control | dose: 1.0 mg/kg/injection, schedule: Q01DX009 (ip), vehicle: water 102 % of control | dose: 2.0 mg/kg/injection, schedule: Q01DX009 (ip), vehicle: water 97 % of control | dose: 4.0 mg/kg/injection, schedule: Q01DX009 (ip), vehicle: water 93 % of control | dose: 8.0 mg/kg/injection, schedule: Q01DX009 (ip), vehicle: water 104 % of control

C=CC(=O)OC1CC(O)C2(C)CC3C(=C)C(=O)OC3CC(C)C12 (stereo not given)
inactive: [4] 107 % of control | [5] 110 % of control | [6] 109 % of control

CCCCN(CCCC)C(=N)OC
inactive: dose: 12.5 mg/kg/injection, schedule: Q01DX005 (ip), vehicle: suspension in saline 100 % of control | dose: 25.0 mg/kg/injection, schedule: Q01DX005 (ip), vehicle: suspension in saline 108 % of control | [7] 99 % of control | dose: 50.0 mg/kg/injection, schedule: Q01DX005 (ip), vehicle: suspension in saline 117 % of control

O=C(NCC1OC(n2cnc3c(=O)[nH]cnc32)C(O)C1O)c1cccc(S(=O)(=O)F)c1 (stereo not given)
inactive: dose: 50.0 mg/kg/injection, schedule: Q01DX001 (ip), vehicle: saline with Tween-80 101 % of control | dose: 100.0 mg/kg/injection, schedule: Q01DX001 (ip), vehicle: saline with Tween-80 111 % of control | dose: 200.0 mg/kg/injection, schedule: Q01DX001 (ip), vehicle: saline with Tween-80 100 % of control

N#CC(c1ccccc1)c1cnccn1 (stereo not given)
inactive: dose: 25.0 mg/kg/injection, schedule: Q01DX005 (ip), vehicle: saline with Tween-80 102 % of control | [8] 100 % of control

O=[N+]([O-])c1ccc(C2OCC3CSCN32)cc1 (stereo not given)
inactive: [4] 107 % of control | [5] 97 % of control | [6] 97 % of control

C[C@@H]1C(=O)O[C@H]2[C@H]1CC[C@@]1(C)C=C(Cl)C(=O)[C@@H](C)[C@H]21
inactive: dose: 50.0 mg/kg/injection, schedule: Q04DX002 (ip), vehicle: saline with Tween-80 100 % of control | [4] 117 % of control

O=C(Nc1ccc(Sc2ccc(N=Nc3c(O)c(S(=O)(=O)O)cc4cc(S(=O)(=O)O)ccc34)cc2)cc1)c1ccc(N=Nc2ccc3c(S(=O)(=O)O)cccc3c2O)cc1
inactive: [8] 101 % of control | dose: 100.0 mg/kg/injection, schedule: Q01DX005 (ip), vehicle: saline with Tween-80 102 % of control | dose: 200.0 mg/kg/injection, schedule: Q01DX005 (ip), vehicle: saline with Tween-80 95 % of control

CN(C)c1ccc(C2OC2C(=O)n2ccc(=O)n(C(=O)C3OC3c3ccc(N(C)C)cc3)c2=O)cc1 (stereo not given)
inactive: dose: 100.0 mg/kg/injection, schedule: Q04DX002 (ip), vehicle: saline 101 % of control | dose: 200.0 mg/kg/injection, schedule: Q04DX002 (ip), vehicle: saline 100 % of control | dose: 400.0 mg/kg/injection, schedule: Q04DX002 (ip), vehicle: saline 97 % of control

COC(=O)NC1CC=CCC1I (stereo not given)
inactive: [1] 96 % of control | [2] 105 % of control | [3] 106 % of control

CC(=O)Nc1ccc(S(=O)(=O)n2c(=O)oc3ccc(Br)cc32)cc1
inactive: dose: 50.0 mg/kg/injection, schedule: Q01DX005 (ip), vehicle: Klucel (hydroxypropylcellulose) (HPC) 98 % of control | dose: 100.0 mg/kg/injection, schedule: Q01DX005 (ip), vehicle: Klucel (hydroxypropylcellulose) (HPC) 100 % of control | dose: 200.0 mg/kg/injection, schedule: Q01DX005 (ip), vehicle: Klucel (hydroxypropylcellulose) (HPC) 99 % of control

CC(=O)NC(CC(C)C(C)=O)C(=O)O (stereo not given)
inactive: [7] 92 % of control | dose: 100.0 mg/kg/injection, schedule: Q01DX005 (ip), vehicle: saline 95 % of control | dose: 200.0 mg/kg/injection, schedule: Q01DX005 (ip), vehicle: saline 92 % of control

COc1cccc2c1C(=O)c1c(O)c3c(c(O)c1C2=O)[C@@H](OC)[C@@](O)(C(=O)CO)C[C@@H]3OC1CC(N)C(O)C(C)O1 (stereo not given in full)
inactive: dose: 3.13 mg/kg/injection, schedule: Q04DX003 (ip), vehicle: water 108 % of control and 123 % of control | dose: 12.5 mg/kg/injection, schedule: Q04DX003 (ip), vehicle: water 115 % of control | dose: 25.0 mg/kg/injection, schedule: Q04DX003 (ip), vehicle: water 106 % of control and 115 % of control | dose: 50.0 mg/kg/injection, schedule: Q04DX003 (ip), vehicle: water 104 % of control

CCCCCCCCCCCCCCCC[N+]1([O-])CCOCC1
inactive: dose: 12.5 mg/kg/injection, schedule: Q01DX009 (ip), vehicle: saline with Tween-80 105 % of control | [9] 102 % of control | [10] 102 % of control

C=CCOC1C=C(C)C(=O)O1 (stereo not given)
inactive: dose: 41.5 mg/kg/injection, schedule: Q01DX005 (ip), vehicle: saline with Tween-80 100 % of control | dose: 83.0 mg/kg/injection, schedule: Q01DX005 (ip), vehicle: saline with Tween-80 103 % of control | dose: 166.0 mg/kg/injection, schedule: Q01DX005 (ip), vehicle: saline with Tween-80 109 % of control

CN1c2ccc(C=O)cc2Sc2cc(C=O)ccc21
inactive: dose: 60.0 mg/kg/injection, schedule: Q01DX005 (ip), vehicle: saline with Tween-80 91 % of control | dose: 120.0 mg/kg/injection, schedule: Q01DX005 (ip), vehicle: saline with Tween-80 91 % of control | dose: 240.0 mg/kg/injection, schedule: Q01DX005 (ip), vehicle: saline with Tween-80 90 % of control

Clc1nnc(-c2ccccc2)c(-c2ccccc2)n1
inactive: [9] 100 % of control | [10] 100 % of control | dose: 100.0 mg/kg/injection, schedule: Q01DX009 (ip), vehicle: saline with Tween-80 100 % of control

CC(=O)Nn1c(N)nc2cc(C)ccc21
inactive: dose: 200.0 mg/kg/injection, schedule: Q01DX001 (ip), vehicle: saline 98 % of control | dose: 400.0 mg/kg/injection, schedule: Q01DX001 (ip), vehicle: saline 93 % of control
